We go through twelve compounds from ChEMBL document CHEMBL1152465, “Comparative evaluation of the inhibitory activities of a series of pyrimidinedione congeners that inhibit human immunodeficiency virus types 1 and 2” (Antimicrob Agents Chemother, 2008).

What is called EC50 is the concentration that produces a half-maximal response. For orientation: EC99 means the concentration at which the effect reaches the 99% level. Usually IC50 stands for the midpoint of a concentration-inhibition curve.

Structures are written as SMILES. The source made the active and inactive calls.

The test system of series [1] is Human immunodeficiency virus 2. Nature of the series: Antiviral activity against HIV2 ROD infected in human CEM-SS cells assessed as inhibition of virus-induced cytopathic effect by XTT assay. It is filed as functional, organism-based, ISOLATE ROD. (In general: Cytopathic effects are the visible damage that an infection or toxin causes in cultured cells.)
The nature of series [2]: Cytotoxicity against human CEM-SS cells by XTT assay. The format is cell-based. To be noted: read-out: TC50 (the source's name).
Series [3] deals with Human immunodeficiency virus 1. The experiment in a line: Antiviral activity against HIV1 infected in human CEM-SS cells assessed as inhibition of viral replication and virus-induced cytopathic effect by dose-response curve analysis. To be noted: Human immunodeficiency virus 1, CEM-SS. It is filed as functional.
The target in series [4] is Human immunodeficiency virus type 1 reverse transcriptase (Human immunodeficiency virus 1, UniProt Q72547). The experiment in a line: Inhibition of wild type HIV1 reverse transcriptase assessed as 32P-labeled GMP incorporation into nascent DNA strand.
For series [5], the system named is Human immunodeficiency virus 1. The experiment in a line: Antiviral activity against HIV1 infected in human HeLa cells expressing CD4-LTR assessed as inhibition of viral entry-related beta galactosidase expression treated for 2 hrs followed by drug wash out measured after 48 hrs by MAGI assay. The settings on record: Human immunodeficiency virus 1, HeLa. The format is functional, organism-based.

Series [6] deals with Human immunodeficiency virus 1. Nature of the series: Antiviral activity against HIV1 RF infected in human CEM-SS cells assessed as inhibition of virus-induced cytopathic effect by XTT assay. The format is functional, organism-based. To be noted: Human immunodeficiency virus 1, RF.
For series [7], the system named is Human immunodeficiency virus 2. The experiment in a line: Antiviral activity against HIV2 assessed as inhibition of viral replication treated at time points after viral entry into host cells. The format is functional, organism-based.
Series [8] can be described thus: Therapeutic index, ratio of TC50 for human CEM-SS cells to EC50 for HIV2 ROD infected in human CEM-SS cells. To be noted: for selectivity ratio: CEM-SS cells, read-out: TI; for TI: cem-ss. It is filed as cell-based.
In series [9] the test system is Human immunodeficiency virus 2. The experiment in a line: Inhibition of HIV2 reverse transcriptase assessed as 32P-labeled GMP incorporation into nascent DNA strand at highest concentration.
Series [10] has as its target Human immunodeficiency virus type 1 reverse transcriptase (Human immunodeficiency virus 1, UniProt Q72547, K103N). Nature of the series: Inhibition of HIV1 reverse transcriptase K103N mutant assessed as 32P-labeled GMP incorporation into nascent DNA strand.
Series [11] is described as follows: Therapeutic index, ratio of TC50 human HeLa cells expressing CD4-LTR to EC50 for HIV1 entry inhibition in human HeLa cells expressing CD4-LTR. The format is cell-based. The settings on record: read-out: TI.
Series [12] can be described thus: Cytotoxicity against human HeLa cells expressing CD4-LTR by XTT assay. To be noted: read-out: TC50 (the source's name). It is filed as cell-based. (Tetrazolium dyes change colour on reduction, which living cells bring about.)
Series [13] in a line: Therapeutic index, ratio of TC50 for human CEM-SS cells to EC50 for HIV1 RF infected in human CEM-SS cells. It is filed as cell-based. To be noted: read-out: TI.
In series [14] the test system is Human immunodeficiency virus 2. Nature of the series: Inhibition of HIV2 reverse transcriptase.
For series [15], the system named is Human immunodeficiency virus 2. Nature of the series: Antiviral activity against HIV2 assessed as inhibition of viral single round replication at early time point. It is filed as functional, organism-based.
Where [16] appears, read: Human immunodeficiency virus 2, ISOLATE ROD, CEM-SS, read-out: EC50.

On to `Cc1cc(C)cc(C(=O)c2c(C(C)C)c(=O)[nH]c(=O)n2CCC2C=CCC2)c1` (stereo not given), for which the EC50 in [1] (setting [16]) was found to be 0.2 µM; in series [5], 0.05 µM; in series [6], 0.0026 µM. Further, the CC50 in [2] turned out to be 13.7 µM; in [12], 18.3 µM. For the same compound, the EC99 in series [3] came to 1 µM. Moreover, the IC50 came out at 0.023 µM in series [4] and 5.5 µM in series [10]. In addition, the outcome in series [7], in series [9] and in [14] was inactive. The selectivity ratio stood at 65 in series [8], 341 in series [11] and 8940 in series [13]. Also, the result in [15] was Active.
`CCc1c(Sc2cc(C)cc(C)c2)n(CC2CCCCC2)c(=O)[nH]c1=O`: the EC50 turned out to be 26.9 µM in series [1] (setting [16]), 0.05 µM in [5] and 0.134 µM in series [6]. The CC50 in series [2] and in series [12] was 71.7 µM in each case. Besides, the EC99 in series [3] came out at 1 µM. Further, the IC50 was 0.152 µM in series [4] and more than 268 µM in series [10]. Also, the result in series [7], in [9] and in series [14] was inactive. Besides, the values for the selectivity ratio in series [8], in series [11] and in series [13] were 2.7, 1320 and 534, respectively. The outcome in [15] was Active.
In the case of `Cc1cc(C)cc(Oc2c(C(C)C)c(=O)[nH]c(=O)n2CC2=CCCC2)c1`, the EC50 in series [1] (setting [16]) is 0.5 µM; in [5] it was 0.18 µM; in series [6] it was 0.001 µM. The CC50 in series [2] is 16.4 µM; in [12], 20.5 µM. Besides, the EC99 in series [3] was determined as 1 µM. In addition, the IC50 stood at 0.032 µM in [4] and 2.2 µM in series [10]. The result in [7], in series [9] and in series [14] was inactive. The selectivity ratio in series [8] turned out to be 32.2; in series [11] it was 116; in series [13] it was 23500. The outcome in series [15] was Active.
Turning to `Cc1cc(C)cc(Oc2c(C(C)C)c(=O)[nH]c(=O)n2CCC2C=CCC2)c1` (stereo not given), the EC50 in [1] (setting [16]) turned out to be 0.4 µM; in series [5], 0.009 µM; in series [6], 0.0059 µM. Further, the CC50 came out at 7.6 µM in series [2] and 14.2 µM in [12]. In addition, the EC99 in series [3] was 1 µM. The IC50 came out at 0.027 µM in [4] and 1.5 µM in series [10]. Besides, the result in series [7], in series [9] and in series [14] was inactive. For the same compound, the selectivity ratio in series [8] is 21.5; in [11], 1650; in series [13] it was 3560. In series [15], the result was Active.
For the compound `CCc1c(C(=O)c2cc(C)cc(C)c2)n(CC2CCCCC2)c(=O)[nH]c1=O`, the values for the concentration for a half-maximal effect (EC50) in series [1] (setting [16]), in series [5] and in [6] were 3 µM, 0.05 µM and 0.054 µM, respectively. Besides, the CC50 in series [2] came out at 1100 µM; in series [12], 1090 µM. Moreover, the EC99 in series [3] turned out to be 1 µM. Besides, the figures for the IC50 in [4] and in series [10] were 0.173 µM and more than 271 µM, respectively. For the same compound, the result in series [7], in series [9] and in [14] was inactive. Also, the selectivity ratio in series [8] was more than 362; in [11], 20200; in series [13], 20300. Further, the result in [15] was Active.
As to `Cc1cc(C)cc(Oc2c(C(C)C)c(=O)[nH]c(=O)n2CC2CCCC2)c1`, the results for the EC50 in series [1] (setting [16]), in series [5] and in [6] were 1.3 µM, 0.87 µM and 0.019 µM, respectively. In addition, the CC50 in series [2] was 11.8 µM; in series [12] it was 15.5 µM. In addition, in series [3], the EC99 worked out at 1 µM. Also, the concentration for half-maximal inhibition (IC50) turned out to be 0.157 µM in series [4] and 1.14 µM in series [10]. Also, the result in [7], in [9] and in series [14] was inactive. In addition, the selectivity ratio in series [8] worked out at 8.8; in [11] it was 18; in [13] it was 1050. Moreover, in [15], the result was Active.
Consider `CCc1c(C(=O)c2cc(C)cc(C)c2)n(CCC2CCCC2)c(=O)[nH]c1=O`, for which the EC50 entry in series [1] (cem-ss) is “Not Active”; in series [5], 0.02 µM; in series [6], 0.01 µM. The figures for the CC50 in series [2] and in series [12] were 25.8 µM and 22.2 µM, respectively. Moreover, the EC99 in [3] worked out at 1 µM. Further, the IC50 was 0.119 µM in [4] and more than 271 µM in [10]. The result in series [7], in series [9] and in series [14] was inactive. Further, the TI entry in series [8] is “Not Active”. Also, the results for the selectivity ratio in [11] and in series [13] were 1230 and 2580, respectively. Moreover, the outcome in [15] was Active.
For the compound `Cc1cc(C)cc(C(=O)c2c(C(C)C)c(=O)[nH]c(=O)n2CC2CCCC2)c1`, the figures for the EC50 in series [1] (setting [16]), in [5] and in series [6] were 0.4 µM, 0.08 µM and 0.0035 µM, respectively. The figures for the CC50 in series [2] and in series [12] were 15.2 µM and 16.6 µM, respectively. For the same compound, the EC99 in series [3] was determined as 1 µM. The IC50 was 0.147 µM in series [4] and 15.3 µM in series [10]. The result in series [7], in [9] and in [14] was inactive. Further, the selectivity ratio in series [8] was found to be 40; in series [11] it was 203; in [13] it was 5080. The result in series [15] was Active.
For the compound `Cc1cc(C)cc(C(=O)c2cc(=O)[nH]c(=O)n2CC2CC=CC2)c1`, the results for the concentration for a half-maximal effect (EC50) in series [1] (setting [16]), in [5] and in series [6] were 30.9 µM, 0.71 µM and 2.16 µM, respectively. The CC50 in series [2] and in series [12] was 87.3 µM throughout. In addition, the EC99 in series [3] was 1 µM. The figures for the IC50 in [4] and in series [10] were 119 µM and more than 308 µM, respectively. Also, the result in [7], in [9] and in series [14] was inactive. Further, the selectivity ratio in series [8] was 2.8; in series [11] it was 124; in series [13] it was 40. In addition, in series [15], the result was Active.
Regarding `Cc1cc(C)cc(Sc2c(C(C)C)c(=O)[nH]c(=O)n2CCC2=CCCC2)c1`, the EC50 entry in series [1] (cem-ss) was “Not Active”; in series [5], 0.011 µM; in series [6], 0.94 µM. Further, the CC50 in series [2] amounted to 19.3 µM; in series [12] it was 21.6 µM. The EC99 in [3] turned out to be 1 µM. Also, the IC50 in series [4] is 2.36 µM; in series [10], more than 260 µM. Besides, the result in series [7], in series [9] and in series [14] was inactive. In addition, the TI result in [8] is reported as “Not Active”. The selectivity ratio stood at 1990 in series [11] and 26 in series [13]. Further, in series [15], the result was Active.
With `CCc1c(Oc2cc(C)cc(C)c2)n(CCC2=CCCC2)c(=O)[nH]c1=O`, the EC50 in series [1] (setting [16]) came out at 28.2 µM; in series [5], 2.62 µM; in series [6], 0.42 µM. Further, the figures for the CC50 in [2] and in [12] were 1100 µM and 1110 µM, respectively. The EC99 in series [3] was 1 µM. The IC50 in series [4] came out at 10.3 µM; in series [10], 247 µM. For the same compound, the outcome in series [7], in series [9] and in series [14] was inactive. Further, the selectivity ratio in [8] is more than 39.7; in series [11], 424; in [13] it was 2600. Besides, in series [15], the result was Active.
For `CC(C)c1c(Sc2ccccc2)n(CC2CC=CC2)c(=O)[nH]c1=O`, the EC50 result in series [1] (cem-ss) is “Not Active”; in series [5], 1.19 µM; in series [6], 0.028 µM. The CC50 was determined as 15.5 µM in series [2] and 25.9 µM in [12]. For the same compound, the EC99 in series [3] came to 1 µM. The figures for the IC50 in series [4] and in [10] were 0.244 µM and more than 292 µM, respectively. Besides, the result in series [7], in [9] and in [14] was inactive. In addition, in [8], the TI entry is on record as “Not Active”. Further, the values for the selectivity ratio in series [11] and in [13] were 22 and 1300, respectively. Further, the outcome in series [15] was Active.
